{"source": "patent US8076449B2", "about": "“Therapeutic agents of colivelin for neurodegenerative diseases” (Tomohiro Chiba, priority 2004, dated 2011)", "origin": "cited, not measured here", "key": {"[1]": {"test_system": "F11 cells transformed with M146L-PS1", "conditions": "as already reported; cited from earlier work"}, "[2]": {"test_system": "primary cultured cortical neurons treated with Aβ (1-43)", "conditions": "Aβ (1-43) neurotoxicity; stated as known fact; cited from earlier work"}}, "data": [{"substance": "HNG: Humanin (HN) derivative whose serine residue at the position 14 is replaced by glycine (MAPRGFSCLLLLTGEIDLPVKRRA; Humanin; UniProt Q8IVG9 1-24, looked up, variant S14G)", "values": [{"measurement": "concentration completely suppressing cell death caused by M146L-PS1", "setting": "[1]", "value": 100, "unit": "nM"}, {"measurement": "concentration exerting complete protective action", "setting": "[2]", "value": 10, "unit": "nM"}]}]}
